Source: patent US20220169660A1, “CYCLIC AMINO-PYRAZINECARBOXAMIDE COMPOUNDS AND USES THEREOF” (SILVERBACK THERAPEUTICS, INC., priority 2019, published 2022)

Columns and labels:
[1] = test system: TGFβ/SMAD Singling Pathway SBE reporter cell line; assay: TGFβ reporter assay (in vitro small molecule screening); format: cell-based; details: SBE luciferase reporter cells, TGFβ stimulation, 18 h, luminescence
Protocol: TGFβ/SMAD Singling Pathway SBE reporter cell line was obtained from BPS Bioscience. Cells were passed, expanded, and stored in liquid nitrogen as per the supplier's instructions with the exception that growth media is changed to DMEM-C with Geneticin (DMEM supplemented with 10% fetal bovine serum, 1×NEAA, 1 mM Pyruvate, 2 mM glutamine, 50 μg/mL penicillin, 50 U/mL streptomycin and 400 μg/mL of Geneticin). The assay media was MEM supplemented with […] fetal bovine serum, 1×NEAA, 1 mM Pyruvate, 50 μg/mL penicillin and 50 U/mL streptomycin.
Test samples (at desired concentrations diluted in assay media) were added to a 96-well assay plate, 20 μL per well. Reporter cells were harvested from the tissue culture flasks by incubation in small quantity of PBS at 37° C. for two minutes after the media in the flask is removed and cells rinsed with PBS. Cells were counted and diluted in the assay media at approximately 0.5×10^6 cells/mL and then 80 μL/well of cells were added to the assay plate containing the 20 μL/well of test samples (or media only), and incubated for approximately 5-6 hours at 37° C. in a 5% CO2 humidified incubator. After that time, 15 μL of TGFβ diluted to 12 ng/mL in the assay media was added to the plate. Controls included TGFβ titration (from 50 to 0 ng/mL) without inhibitors, and media only (without cells, inhibitor or TGFβ). Plates were incubated at 37° C. in a 5% CO2 humidified incubator for 18 h. Luciferase substrate solution is subsequently added at 100 μL per well, incubated in the dark at room temperature for 15 min, and luminescence is measured using a luminometer. EC50 values and curve fits were obtained using Prism (GraphPad Software).

[2] = target: T1, TGFBR2 (Homo sapiens, UniProt P37173); assay: TGFBR2 RBC enzyme assay (Reaction Biology Corp.); format: biochemical
T1 construct: purchased Reaction Biology Corp
T1 sequence (P37173 23-567): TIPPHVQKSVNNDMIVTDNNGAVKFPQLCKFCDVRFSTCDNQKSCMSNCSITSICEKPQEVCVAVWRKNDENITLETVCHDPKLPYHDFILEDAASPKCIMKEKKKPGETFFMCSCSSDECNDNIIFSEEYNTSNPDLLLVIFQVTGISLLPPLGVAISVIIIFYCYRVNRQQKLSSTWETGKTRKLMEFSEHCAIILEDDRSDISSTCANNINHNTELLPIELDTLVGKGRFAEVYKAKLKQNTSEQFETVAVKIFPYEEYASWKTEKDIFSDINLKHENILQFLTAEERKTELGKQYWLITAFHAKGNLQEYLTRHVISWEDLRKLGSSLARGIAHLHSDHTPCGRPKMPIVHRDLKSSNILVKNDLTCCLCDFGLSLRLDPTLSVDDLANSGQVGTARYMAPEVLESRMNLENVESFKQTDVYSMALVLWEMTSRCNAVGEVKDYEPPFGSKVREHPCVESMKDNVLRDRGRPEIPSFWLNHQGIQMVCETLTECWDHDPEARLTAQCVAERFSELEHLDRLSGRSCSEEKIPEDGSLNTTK
Protocol: Compounds of the disclosure were assayed by Reaction Biology Corp. using the TGFBR2 RBC enzyme assay.

SMILES	EC50 [1] [nM]	EC50 [2] [nM]
Cc1ccc2cc1OCCCN(C)c1ccncc1NC(=O)c1nc-2cnc1N [Compound 12, 2^5-amino-1^4,6-dimethyl-10-oxa-4,6-diaza-2(2,6)-pyrazina-5(3,4)-pyridina-1(1,3)-benzenacyclodecaphan-3-one]	1 to 1000	1 to 100
CCN1CCCOc2cccc(c2)-c2cnc(N)c(n2)C(=O)Nc2cnccc21 [Compound 13, 2^5-amino-6-ethyl-10-oxa-4,6-diaza-2(2,6)-pyrazina-5(3,4)-pyridina-1(1,3)-benzenacyclodecaphan-3-one]	1 to 1000	100 to 1000
CN1CCCOc2cc(OCCCN3C(=O)c4ccccc4C3=O)cc(c2)-c2cnc(N)c(n2)C(=O)Nc2cnccc21 [Compound 14, 2-(3-((2^5-amino-6-methyl-3-oxo-10-oxa-4,6-diaza-2(2,6)-pyrazina-5(3,4)-pyridina-1(1,3)-benzenacyclodecaphane-1^5-yl)oxy)propyl)isoindoline-1,3-dione]	1 to 1000	1 to 100
CCCN1CCCOc2cccc(c2)-c2cnc(N)c(n2)C(=O)Nc2cnccc21 [Compound 17, 2^5-amino-6-propyl-10-oxa-4,6-diaza-2(2,6)-pyrazina-5(3,4)-pyridina-1(1,3)-benzenacyclodecaphan-3-one]	1 to 1000	1 to 100
CC1CCN(C)c2ccncc2NC(=O)c2nc(cnc2N)-c2cccc(c2)O1 (stereo not shown) [Compound 19, 2^5-amino-6,9-dimethyl-10-oxa-4,6-diaza-2(2,6)-pyrazina-5(3,4)-pyridina-1(1,3)-benzenacyclodecaphan-3-one]	1 to 1000	1 to 100
CC1OCCN(C)c2ccncc2NC(=O)c2nc(cnc2N)-c2cccc1c2 (stereo not shown) [Compound 20]	1 to 1000	1 to 100
Nc1ncc2nc1C(=O)Nc1cnccc1OCCCOc1cccc-2c1 [Compound 21, 2^5-amino-6,10-dioxa-4-aza-2(2,6)-pyrazina-5(3,4)-pyridina-1(1,3)-benzenacyclodecaphan-3-one]	> 5000	> 1000
Nc1ncc2nc1C(=O)Nc1cnccc1N1CCC(CC1)Oc1cccc-2c1 [Compound 23, 1^5-amino-3-oxa-6-aza-1(2,6)-pyrazina-5(4,3)-pyridina-4(4,1)-piperidina-2(1,3)-benzenacycloheptaphan-7-one]	> 5000	> 1000
Nc1ncc2nc1C(=O)Nc1cnccc1N1CCC(COc3cccc-2c3)C1 (stereo not shown) [Compound 25, 1^5-amino-3-oxa-7-aza-1(2,6)-pyrazina-6(4,3)-pyridina-5(3,1)-pyrrolidina-2(1,3)-benzenacyclooctaphan-8-one]	1 to 1000	1 to 100
CN1CCC(=O)N(C)c2cccc(c2)-c2cnc(N)c(n2)C(=O)Nc2cnccc21 [Compound 27, 2^5-amino-6,10-dimethyl-4,6,10-triaza-2(2,6)-pyrazina-5(3,4)-pyridina-1(1,3)-benzenacyclodecaphane-3,9-dione]	1 to 1000	1 to 100
CN1CCNC(=O)c2cccc(c2)-c2cnc(N)c(n2)C(=O)Nc2cnccc21 [Compound 30, 2^5-amino-6-methyl-4,6,9-triaza-2(2,6)-pyrazina-5(3,4)-pyridina-1(1,3)-benzenacyclodecaphane-3,10-dione]	> 5000	> 1000
CN1CCCNC(=O)c2cccc(c2)-c2cnc(N)c(n2)C(=O)Nc2cnccc21 [Compound 31, 2^5-amino-6-methyl-4,6,10-triaza-2(2,6)-pyrazina-5(3,4)-pyridina-1(1,3)-benzenacycloundecaphane-3,11-dione]	1000 to 5000	100 to 1000
Nc1ncc2nc1C(=O)Nc1cnccc1O[C@H]1CC[C@H](CC1)Oc1cccc-2c1 [Compound 43, (4^1,4^4-cis)-1^5-amino-3,5-dioxa-7-aza-1(2,6)-pyrazina-6(4,3)-pyridina-2(1,3)-benzena-4(1,4)-cyclohexanacyclooctaphan-8-one]	> 5000	> 1000
Nc1ncc2nc1C(=O)Nc1cnccc1SCCCOc1ccc(Br)c-2c1 [Compound 51, 2^5-amino-1^6-bromo-10-oxa-6-thia-4-aza-2(2,6)-pyrazina-5(3,4)-pyridina-1(1,3)-benzenacyclodecaphan-3-one]	1 to 1000	1 to 100
CN1CCCNC(=O)c2cc(ccc2OCCCN)-c2cnc(N)c(n2)C(=O)Nc2cnccc21 [Compound 53, 2^5-amino-1^4-(3-aminopropoxy)-6-methyl-4,6,10-triaza-2(2,6)-pyrazina-5(3,4)-pyridina-1(1,3)-benzenacycloundecaphane-3,11-dione]	> 5000	100 to 1000
CN1CCNC(=O)c2cc(ccc2OCCCN)-c2cnc(N)c(n2)C(=O)Nc2cnccc21 [Compound 55, 2^5-amino-1^4-(3-aminopropoxy)-6-methyl-4,6,9-triaza-2(2,6)-pyrazina-5(3,4)-pyridina-1(1,3)-benzenacyclodecaphane-3,10-dione]	> 5000	100 to 1000
CN1C[C@H](CN)Oc2ccccc2-c2cnc(N)c(n2)C(=O)Nc2cnccc21 [Compound 58, (S)-2^5-amino-8-(aminomethyl)-6-methyl-9-oxa-4,6-diaza-2(2,6)-pyrazina-5(3,4)-pyridina-1(1,2)-benzenacyclononaphan-3-one]	1000 to 5000	> 1000
CN1C[C@H](CNCc2ccccc2)Oc2ccccc2-c2cnc(N)c(n2)C(=O)Nc2cnccc21 [Compound 59, (S)-2^5-amino-8-((benzylamino)methyl)-6-methyl-9-oxa-4,6-diaza-2(2,6)-pyrazina-5(3,4)-pyridina-1(1,2)-benzenacyclononaphan-3-one]	> 5000	> 1000

Further lines, results first:

EC50 [1] [nM]	EC50 [2] [nM]	SMILES
1 to 1000	1 to 100	CN1CCOc2cccc(c2)-c2cnc(N)c(n2)C(=O)Nc2cnccc21 [Compound 11, 2^5-amino-6-methyl-9-oxa-4,6-diaza-2(2,6)-pyrazina-5(3,4)-pyridina-1(1,3)-benzenacyclononaphan-3-one]
1 to 1000	1 to 100	CN1CCOCc2cccc(c2)-c2cnc(N)c(n2)C(=O)Nc2cnccc21 [Compound 15, 2^5-amino-6-methyl-9-oxa-4,6-diaza-2(2,6)-pyrazina-5(3,4)-pyridina-1(1,3)-benzenacyclodecaphan-3-one]
1 to 1000	1 to 100	CN1CCCOc2cc(OCCCN)cc(c2)-c2cnc(N)c(n2)C(=O)Nc2cnccc21 [Compound 16, 2^5-amino-1^5-(3-aminopropoxy)-6-methyl-10-oxa-4,6-diaza-2(2,6)-pyrazina-5(3,4)-pyridina-1(1,3)-benzenacyclodecaphan-3-one]
1 to 1000	1 to 100	CC1CCOc2cccc(c2)-c2cnc(N)c(n2)C(=O)Nc2cnccc2N1C (stereo not shown) [Compound 18, 2^5-amino-6,7-dimethyl-10-oxa-4,6-diaza-2(2,6)-pyrazina-5(3,4)-pyridina-1(1,3)-benzenacyclodecaphan-3-one]
> 5000	> 1000	Nc1ncc2nc1C(=O)Nc1cnccc1N1CCC(CC1)COc1cccc-2c1 [Compound 22, 1^5-amino-3-oxa-7-aza-1(2,6)-pyrazina-6(4,3)-pyridina-5(4,1)-piperidina-2(1,3)-benzenacyclooctaphan-8-one]
1 to 1000	1 to 100	CN1CCC(=O)Nc2cccc(c2)-c2cnc(N)c(n2)C(=O)Nc2cnccc21 [Compound 26, 2^5-amino-6-methyl-4,6,10-triaza-2(2,6)-pyrazina-5(3,4)-pyridina-1(1,3)-benzenacyclodecaphene-3,9-dione]
1000 to 5000	100 to 1000	CN1CCCCOc2ccccc2-c2cnc(N)c(n2)C(=O)Nc2cnccc21 [Compound 34, 2^5-amino-6-methyl-11-oxa-4,6-diaza-2(2,6)-pyrazina-5(3,4)-pyridina-1(1,2)-benzenacycloundecaphan-3-one]
1 to 1000	1 to 100	Nc1ncc2nc1C(=O)Nc1cnccc1OCCOc1ccc(Br)c-2c1 [Compound 49, 2^5-amino-16-bromo-6,9-dioxa-4-aza-2(2,6)-pyrazina-5(3,4)-pyridina-1(1,3)-benzenacyclononaphan-3-one]
1 to 1000	1 to 100	Nc1ncc2nc1C(=O)Nc1cnccc1OCCOc1cccc-2c1 [Compound 50, 2^5-amino-6,9-dioxa-4-aza-2(2,6)-pyrazina-5(3,4)-pyridina-1(1,3)-benzenacyclononaphan-3-one]
1000 to 5000	1 to 100	CN1CCN(C)c2ccncc2NC(=O)c2nc(cnc2N)-c2ccc(OCCCN)c(c2)C1=O [Compound 56, 2^5-amino-1^4-(3-aminopropoxy)-6,9-dimethyl-4,6,9-triaza-2(2,6)-pyrazina-5(3,4)-pyridina-1(1,3)-benzenacyclodecaphene-3,10-dione]
1000 to 5000	> 1000	CN1C[C@@H](CNCc2ccccc2)Oc2ccccc2-c2cnc(N)c(n2)C(=O)Nc2cnccc21 [Compound 57, (R)-2^5-amino-8-((benzylamino)methyl)-6-methyl-9-oxa-4,6-diaza-2(2,6)-pyrazin-5(3,4)-pyridina-1(1,2)-benzenacyclononaphan-3-one]
